# Values quoted from earlier work as cited in patent US10034846B2, “Famciclovir and celecoxib combination therapy for functional somatic syndromes” (INNOVATIVE MED CONCEPTS, LLC, priority 2012, dated 2018).
# Tested on: fibromyalgia patients
# Settings: Kendall et al., J. Rheumatology (2004) 31, 783-784
smiles,measurement,value
CC(C)[C@H](N)C(=O)OCCOCn1cnc2c(=O)[nH]c(N)nc21 [valacyclovir],Treatment of fibromyalgia patients,not successful
